Test results taken from US20150377876A1, “DIAGNOSTIC TOOLS TO PREDICT ONSET OF PREECLAMPSIA” (UNIVERSITY OF IOWA RESEARCH FOUNDATION, priority 2013, published 2015).
Read-outs that look alike come from different tables or passages of the source. Values belong to the compound of their own block, whether it stands above or below them.

Columns and labels:
abdominal aorta [1] = conditions: for Maximum Response, relaxation / Maximum Response, contraction / EC50: abdominal aorta; for Maximum Response, relaxation: after sub-maximal contraction with PGF2a; for EC50: read-out: EC50, contractile response
Protocol: (§1) Aortic Vascular Reactivity: Abdominal aortic rings were assessed for vascular reactivity as previously described (30). Briefly, mice were euthanized by overdose of pentobarbital (50 mg, i.p.), and the abdominal aorta was quickly removed and placed in Kreb's buffer containing (in mmol/L): 118.3 NaCl, 4.7 KCl, 1.2 MgSO4, 1.2 KH2PO4, 25 NaHCO3, 2.5 CaCl2 and 11 glucose. Vascular rings (4-5 mm in length) were suspended in oxygenated Kreb's buffer (95% O2/5% CO2) in organ baths at 37° C. and connected to a force transducer via steel hooks. Resting tension was adjusted to 0.5 grams over 45 minutes.
(§2) Statistics: Data were analyzed by ANOVA with repeated measures as appropriate. Post-hoc analyses were performed using Bonferroni multiple-comparisons procedures. EC50 and maximum response calculations were performed by fitting individual dose-response data sets to a four-parameter logistic function (Hillslope method); y=min+(max−min)/(1+(x/EC50)̂Hill slope). […] All analytical comparisons were performed using SigmaStat/SigmaPlot (Systat). All data are presented as mean±sem.

abdominal aorta [2] = assay: tissue or blood; conditions: Mus musculus
Protocol: as §1, §2

C57B1/6J mice = assay: Vasopressin infusion during pregnancy, preeclampsia-like phenotypes; format: in vivo
Protocol: Animal Studies: Female C57B1/6J mice were obtained from Jackson Laboratories between 8-12 weeks of age. Osmotic minipumps infusing vasopressin (240 ng/hr) or saline vehicle were inserted into the subcutaneous space via incision between the scapulae. Following three days of recovery, females were mated with male C57B1/6J mice. Presence of a vaginal plug indicated gestational day 0.5. Blood pressure was tracked before mating and throughout gestation by tail-cuff plethysmography. On gestational day 18, females were sacrificed for necropsy. Pup weight was recorded. Dam kidney sections were generated and imaged by electron microscopy by the University of Iowa Department of Pathology. All studies were approved by the University of Iowa Animal Care and Use Committee (ACURF#1211239).

[3] = in blood; cited from earlier work
[4] = test system: 2°-branch mesenteric artery; assay: tissue or blood; set-up: species or system mice; conditions: for Maximum Response, contraction / EC50: mesenteric artery; for EC50: read-out: EC50, contractile response
Protocol: Mesenteric Artery Vascular Reactivity: Secondary branches of mesenteric artery were dissected and placed in chilled oxygenated (21% O2, 5% CO2, and 74% N2) Kreb's buffer. A segment (˜1 mm long) of artery was transferred to a vessel chamber (DMT), cannulated with glass micropipettes and secured with silk ligatures. The artery was slowly pressurized to 40 mmHg without flow. After 30 min equilibration, vessel viability was tested by constriction response to 100 mM KCl. Vascular responses to PE (10-9-10-5 mol/L), AVP (10-12-10-7 mol/L), and ET-1 (10-11-10-8 mol/L) were then assessed. The artery was then superfused with calcium-free Krebs buffer containing 10-5 mol/L sodium nitroprusside and 2 mmol/L EGTA to maximally dilate the vessel. Internal and external diameters were measured at 75 mm Hg. Wall thickness, media/lumen ratio and cross sectional area (CSA) were calculated as previously described by Neves, et al. (58).
Statistics: Data were analyzed by ANOVA with repeated measures as appropriate. Post-hoc analyses were performed using Bonferroni multiple-comparisons procedures. EC50 and maximum response calculations were performed by fitting individual dose-response data sets to a four-parameter logistic function (Hillslope method); y=min+(max−min)/(1+(x/EC50)̂Hill slope). All mRNA fold changes were calculated using the Livak method (51). All analytical comparisons were performed using SigmaStat/SigmaPlot (Systat). All data are presented as mean±sem.

sRA mice [5] = assay: Radiotelemetric blood pressure, heart rate and physical activity during chronic subcutaneous infusion; format: in vivo; conditions: for radiotelemetric blood pressure: sRA mice, 22 ng/h sc infusion (conivaptan 18 days, one female; tolvaptan 10 days, n=4 female)
Protocol: Blood pressure (telemetry). Radiotelemetric blood pressures were recorded from the carotid artery essentially as previously reported (27). Briefly, a telemeter probe (DSI, model TA11PA-C10) was inserted into the common carotid artery under ketamine-xylazine anesthesia. After >2 days of recovery, blood pressure, heart rate, and spontaneous physical activity were recorded for 30 s every 5 min using the Dataquest program (DSI). After baseline recordings, mice were chronically delivered conivaptan and tolvaptan via osmotic minipump that was implanted through an interscapular incision into the subcutaneous space of the back under isoflurane anesthesia.

[6] = test system: sRA and control littermate mice; assay: Blood chemistry following tolvaptan infusion (iSTAT CHEM8+); format: in vivo; conditions: for Anion gap / BUN / Chloride / Glucose / Hematocrit / Ionized calcium / Potassium / Sodium / Total CO2 / Creatinine: tolvaptan 22 ng/h, 10 days sc; for Creatinine: lower detection limit 0.20 mg/dl
Protocol: Blood and urine analyses: Plasma was obtained by collecting whole blood by submandibular bleed into lithium heparin coated tubes, then centrifuged at 5,000×g for 5 minutes, and the supernatant transferred to a fresh tube and frozen at −80° C. until analysis. Urine was collected using Nalgene single-mouse metabolism cages as previously described (20). Copeptin was measured using an ELISA kit (USCN Life Sciences), according to the manufacturer's instructions. Blood chemistries and urine creatinine were determined using a handheld iSTAT clinical chemistry analyzer (Abbott), with CHEM8+ cartridges. Urine protein was determined using a bicinchoninic acid assay kit (Thermo Fisher/Pierce), according to the manufacturer's instructions.

sRA mice [7] = assay: Blood pressure by tail-cuff during chronic subcutaneous infusion; format: in vivo; conditions: 22 ng/h sc by osmotic minipump, 10 days
Protocol: Here we first examined blood pressure in sRA mice using a Visitech Systems BP-2000 tail-cuff blood pressure monitoring system, as previously described (79). Briefly, animals were acclimated to warmed restraint boxes daily for 1 wk. Once acclimated, 30 measurements of systolic blood pressure were averaged from each animal daily for 2 wk to assess baseline blood pressure. Conivaptan (Vaprisol, YM 087, 22 ng/h sc, Baxter Healthcare) or tolvaptan (OPC-41061, 22 ng/h sc, Sigma Aldrich) was delivered to distinct subsets of mice by osmotic minipump (model 1004, Alzet). After osmotic minipump implantation, pressures were recorded daily for 10 days to assess drug effects.

[8] = female sRA mouse, 22 ng/h sc, 18 days

EC50 (abdominal aorta [2]; read-out: EC50, relaxation response, abdominal aorta, male control mice, after sub-maximal contraction with PGF2a): 130 ± 35 nM
EC50 (abdominal aorta [2]; read-out: EC50, relaxation response, abdominal aorta, male sRA mice, after sub-maximal contraction with PGF2a): 879 ± 298 nM
SMILES: CC(=O)OCC[N+](C)(C)C [Acetylcholine, acetylcholine]
Maximum Response, relaxation (abdominal aorta [1]; male control mice): 78.9 ± 3.3%
Maximum Response, relaxation (abdominal aorta [1]; male sRA mice): 70.4 ± 8.9%

SMILES: CC[C@H](C)[C@H](NC(=O)[C@H](Cc1ccc(O)cc1)NC(=O)[C@@H](NC(=O)[C@H](CCCNC(=N)N)NC(=O)[C@@H](N)CC(=O)O)C(C)C)C(=O)N[C@@H](Cc1c[nH]cn1)C(=O)N1CCC[C@H]1C(=O)N[C@@H](Cc1ccccc1)C(=O)O [Angiotensin II, angiotensin II]
Maximum Response, contraction (abdominal aorta [1]; male control littermate mice): 0.32 ± 0.03 g
Maximum Response, contraction (abdominal aorta [1]; male sRA mice): 0.38 ± 0.03 g

SMILES: NC(=O)CC[C@@H]1NC(=O)[C@H](Cc2ccccc2)NC(=O)[C@H](Cc2ccc(O)cc2)NC(=O)[C@@H](N)CSSC[C@@H](C(=O)N2CCC[C@H]2C(=O)N[C@@H](CCCN=C(N)N)C(=O)NCC(N)=O)NC(=O)[C@H](CC(N)=O)NC1=O [Arginine vasopressin, arginine vasopressin]
renal pathology (electron microscopy) (C57B1/6J mice; dam kidney, gestational day 18, 240 ng/hr sc minipump): pathognomic glomerular endotheliosis
rate of pregnancy (fecundity) (C57B1/6J mice; female C57B1/6J mice, 240 ng/hr sc minipump): significantly reduced the rate of pregnancy
fetal growth (C57B1/6J mice; gestational day 18 fetuses, 240 ng/hr sc minipump): substantial fetal growth restriction
proteinuria (C57B1/6J mice; pregnant C57B1/6J mice, 240 ng/hr sc minipump): apparent proteinuria
blood pressure during pregnancy (C57B1/6J mice; pregnant C57B1/6J mice, 240 ng/hr sc minipump, tail-cuff): robust increase in blood pressure
biological half-life [3]: 5-20 minutes
Maximum Response, contraction ([4]; male control littermate mice): 52.5 ± 3.2%
EC50 ([4]; male control littermate mice): 0.57 ± 0.15 nM
EC50 ([4]; male sRA mice): 15.9 ± 13.5 nM
Maximum Response, contraction (abdominal aorta [1]; male control littermate mice): 0.29 ± 0.03 g
Maximum Response, contraction (abdominal aorta [1]; male sRA mice): 0.12 ± 0.01 g
EC50 (abdominal aorta [1]; male control littermate mice): 2.19 ± 0.19 nM
EC50 (abdominal aorta [1]; male sRA mice): 3.72 ± 0.73 nM

SMILES: CC[C@H](C)[C@H](NC(=O)[C@H](CC(=O)O)NC(=O)[C@H](CC(C)C)NC(=O)[C@H](Cc1c[nH]cn1)NC(=O)[C@@H]1CSSC[C@H](N)C(=O)N[C@@H](CO)C(=O)N[C@H]2CSSC[C@H](NC(=O)[C@H](CCC(=O)O)NC(=O)[C@H](CCCCN)NC(=O)[C@H](CC(=O)O)NC(=O)[C@H](CCSC)NC(=O)[C@H](CC(C)C)NC(=O)[C@H](CO)NC(=O)[C@H](CO)NC2=O)C(=O)N[C@@H](C(C)C)C(=O)N[C@@H](Cc2ccc(O)cc2)C(=O)N[C@@H](Cc2ccccc2)C(=O)N1)C(=O)N[C@H](C(=O)N[C@@H](Cc1c[nH]c2ccccc12)C(=O)O)[C@@H](C)CC [Endothelin-1, endothelin-1]
Maximum Response, contraction ([4]; male control littermate mice): 67.8 ± 4.3%
EC50 ([4]; male control littermate mice): 1.68 ± 0.43 nM
Maximum Response, contraction ([4]; male sRA mice): 58 ± 4.6%
EC50 ([4]; male sRA mice): 0.45 ± 0.17 nM
Maximum Response, contraction (abdominal aorta [1]; male control littermate mice): 0.45 ± 0.04 g
Maximum Response, contraction (abdominal aorta [1]; male sRA mice): 0.55 ± 0.09 g
EC50 (abdominal aorta [1]; male control littermate mice): 3.4 ± 0.33 nM
EC50 (abdominal aorta [1]; male sRA mice): 5.19 ± 0.93 nM

EC50 ([4]; Mus musculus, male control littermate mice): 1460 nM
EC50 ([4]; Mus musculus, male sRA mice): 560 ± 80 nM
EC50 (abdominal aorta [2]; read-out: EC50, contractile response, abdominal aorta, male control littermate mice): 1900 nM
EC50 (abdominal aorta [2]; read-out: EC50, contractile response, abdominal aorta, male sRA mice): 2430 nM
SMILES: CNC[C@H](O)c1cccc(O)c1 [Phenylephrine, phenylephrine]
Maximum Response, contraction ([4]; male control littermate mice): 67.3 ± 3%
Maximum Response, contraction ([4]; male sRA mice): 64.5 ± 4.1%
Maximum Response, contraction (abdominal aorta [1]; male control littermate mice): 1.18 ± 0.05 g
Maximum Response, contraction (abdominal aorta [1]; male sRA mice): 1.02 ± 0.10 g

EC50 (abdominal aorta [1]; male control littermate mice): 4600 nM
EC50 (abdominal aorta [1]; male sRA mice): 3600 nM
SMILES: CCCCC[C@H](O)/C=C/[C@@H]1[C@@H](C/C=C\CCCC(=O)O)[C@@H](O)C[C@H]1O [Prostaglandin F2α, prostaglandin F2a]
Maximum Response, contraction (abdominal aorta [1]; male control littermate mice): 1.59 ± 0.06 g
Maximum Response, contraction (abdominal aorta [1]; male sRA mice): 1.50 ± 0.10 g

SMILES: Cc1ccccc1C(=O)Nc1ccc(C(=O)N2CCC[C@@H](O)c3cc(Cl)ccc32)c(C)c1 [Tolvaptan, tolvaptan]
radiotelemetric blood pressure (sRA mice [5]): blood pressure reduction was confirmed
Anion gap ([6]; female control mice): 17.0 ± 1.5 mM
BUN ([6]; female control mice): 18.4 ± 0.9 mg/dL
Chloride ([6]; female control mice): 112.4 ± 0.5 mM
Glucose ([6]; female control mice): 190 ± 13 mg/dL
Hematocrit ([6]; female control mice): 45.4 ± 0.7 % RBC
Ionized calcium ([6]; female control mice): 1.19 ± 0.05 mM
Potassium ([6]; female control mice): 6.4 ± 0.1 mM
Sodium ([6]; female control mice): 146.2 ± 0.7 mM
Total CO2 ([6]; female control mice): 24.0 ± 1.1 mM
Creatinine ([6]; female control mice): 0.24 ± 0.02 mg/dL
Anion gap ([6]; female sRA mice): 18.5 ± 0.7 mM
BUN ([6]; female sRA mice): 24.5 ± 1.7 mg/dL
Chloride ([6]; female sRA mice): 105.2 ± 1.6 mM
Glucose ([6]; female sRA mice): 136 ± 15 mg/dL
Hematocrit ([6]; female sRA mice): 49.8 ± 1.1 % RBC
Ionized calcium ([6]; female sRA mice): 1.18 ± 0.03 mM
Potassium ([6]; female sRA mice): 5.3 ± 0.3 mM
Sodium ([6]; female sRA mice): 146.3 ± 0.7 mM
Total CO2 ([6]; female sRA mice): 28.8 ± 1.7 mM
Creatinine ([6]; female sRA mice): 0.33 ± 0.04 mg/dL
Anion gap ([6]; male control mice): 16.3 ± 0.5 mM
BUN ([6]; male control mice): 21.5 ± 0.9 mg/dL
Chloride ([6]; male control mice): 115.5 ± 0.3 mM
Glucose ([6]; male control mice): 182 ± 7 mg/dL
Hematocrit ([6]; male control mice): 43.8 ± 1.1 % RBC
Ionized calcium ([6]; male control mice): 1.18 ± 0.04 mM
Potassium ([6]; male control mice): 6.6 ± 0.5 mM
Sodium ([6]; male control mice): 148.3 ± 1.3 mM
Total CO2 ([6]; male control mice): 24.0 ± 0.8 mM
Creatinine ([6]; male control mice): 0.25 ± 0.03 mg/dL
Anion gap ([6]; male sRA mice): 21.0 ± 2.4 mM
BUN ([6]; male sRA mice): 27.3 ± 2.1 mg/dL
Chloride ([6]; male sRA mice): 107.0 ± 2.7 mM
Glucose ([6]; male sRA mice): 181 ± 28 mg/dL
Hematocrit ([6]; male sRA mice): 52.0 ± 1.1 % RBC
Ionized calcium ([6]; male sRA mice): 1.18 ± 0.03 mM
Potassium ([6]; male sRA mice): 5.4 ± 0.1 mM
Sodium ([6]; male sRA mice): 147.5 ± 1.9 mM
Total CO2 ([6]; male sRA mice): 26.0 ± 3.4 mM
Creatinine ([6]; male sRA mice): 0.30 ± 0.04 mg/dL
effect on hyponatremia and hypocalcemia ([6]; sRA mice, chronic tolvaptan 22 ng/h sc, 10 days): corrected both of these imbalances
systolic blood pressure (tail-cuff), effect on hypertension (sRA mice [7]): nearly identical normalization of blood pressure

SMILES: Cc1nc2c([nH]1)-c1ccccc1N(C(=O)c1ccc(NC(=O)c3ccccc3-c3ccccc3)cc1)CC2 [conivaptan]
heart rate (telemetry) (sRA mice [5]; [8]): slight reduction in heart rate
spontaneous physical activity (sRA mice [5]; [8]): remained normal
radiotelemetric blood pressure (sRA mice [5]): gradual but substantial reduction in blood pressure
systolic blood pressure (tail-cuff), effect on hypertension (sRA mice [7]): complete normalization of the hypertension

SMILES: [Cl-].[K+] [potassium chloride]
contractile response to potassium chloride ([4]; mesenteric artery branches of sRA mice vs control, 100 mM KCl): significant reduction in contractile response
constrictor response to potassium chloride (abdominal aorta [1]; aortic rings from sRA mice vs control, 100 mmol/l KCl): normal constrictor responses
